Laboratory results as given in US8772500B2, “TRPV3 modulators” (AbbVie Inc., priority 2011, dated 2014).

Legend:
[1] = In vitro human microsomal stability assay; format: in vitro ADME
How it was run: (§1)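 Stability readout reflects compound turnover by hepatic microsomes from Sprague-Dawley rats or from humans, according to the assay. Reactions at 37 °C contained NADPH, which was present in the zero-time plates as well.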

[2] = target: T1, human TRPV3 (Homo sapiens, UniProt Q8NET8); test: In vitro antagonism of recombinant human TRPV3 activation (FLIPR Tetra calcium assay, 2-APB as agonist); format: cell-based; conditions: HEK293 cells stably expressing human TRPV3; 2-APB 80 μM; range class; read-out: IC50 (reported range)
T1 construct: expressed in transfected cells
T1 sequence (Q8NET8 1-790): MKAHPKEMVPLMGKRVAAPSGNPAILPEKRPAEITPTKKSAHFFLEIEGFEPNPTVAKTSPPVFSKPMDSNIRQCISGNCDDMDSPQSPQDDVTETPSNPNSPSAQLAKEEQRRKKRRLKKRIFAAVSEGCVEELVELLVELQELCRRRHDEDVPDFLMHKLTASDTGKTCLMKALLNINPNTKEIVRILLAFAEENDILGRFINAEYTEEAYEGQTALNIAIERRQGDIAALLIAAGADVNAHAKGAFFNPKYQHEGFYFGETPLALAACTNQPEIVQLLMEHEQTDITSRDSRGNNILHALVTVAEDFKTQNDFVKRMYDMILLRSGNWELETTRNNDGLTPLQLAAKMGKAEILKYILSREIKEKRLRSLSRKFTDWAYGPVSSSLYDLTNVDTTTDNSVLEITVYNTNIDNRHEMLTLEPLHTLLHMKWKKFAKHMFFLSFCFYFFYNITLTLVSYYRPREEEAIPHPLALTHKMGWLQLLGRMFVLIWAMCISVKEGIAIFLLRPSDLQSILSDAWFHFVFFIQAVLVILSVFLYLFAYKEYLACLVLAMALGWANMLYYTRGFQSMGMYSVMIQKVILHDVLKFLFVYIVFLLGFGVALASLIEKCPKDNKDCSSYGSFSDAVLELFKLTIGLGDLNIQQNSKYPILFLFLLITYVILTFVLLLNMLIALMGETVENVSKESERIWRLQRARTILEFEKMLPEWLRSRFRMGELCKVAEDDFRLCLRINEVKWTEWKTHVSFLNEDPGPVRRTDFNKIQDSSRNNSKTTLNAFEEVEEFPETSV
How it was run: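 Readout is FLIPR fluorescence, max minus min as percent of uninhibited 2-APB response, giving IC50 (usually mean of ≥2 runs). Stable human TRPV3 HEK293 cells, Calcium-4 dye-loaded, got test compound then, three minutes later, 80 μM 2-APB (EC80); run length 10 min.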

[3] = In vitro rat microsomal stability assay; format: in vitro ADME, rat (Sprague-Dawley)
How it was run: as §1

[4] = Sprague-Dawley, rat, 0.5 h, 0.5 μM, pH 7.4
[5] = 0.5 μM substrate, 0.25 mg/mL microsomal protein, pH 7.4, 37° C., NADPH, 30 minutes

Row | SMILES | HUMAN MICROSOMAL STABILITY (% REMAINING AFTER 30 MINUTES) ([1]; human, 0.5 h, 0.5 μM, pH 7.4) [%] | IC50 [2] [µM] | RAT MICROSOMAL STABILITY (% REMAINING AFTER 30 MINUTES) [3, 4] [%] | HUMAN MICROSOMAL STABILITY (% REMAINING AFTER 30 MINUTES) [1, 5] [%] | RAT MICROSOMAL STABILITY (% REMAINING AFTER 30 MINUTES) [3, 5] [%]
1 | OC(c1ccccn1)C1(c2cccc(C(F)(F)F)c2)CCCO1 (stereo not drawn) [Example 107, (syn)-pyridin-2-yl{2-[3-(trifluoromethyl)phenyl]tetrahydrofuran-2-yl}-methanol] | 31 | 1.1 to 5 | 0.23 | – | –
2 | OC(c1ccccn1)C1(c2ccc(F)c(F)c2)CCCO1 (stereo not drawn) [Example 109, (syn)-[2-(3,4-difluorophenyl)tetrahydrofuran-2-yl](pyridin-2-yl)methanol] | 45 | 5.1 to 20 | 0.74 | – | –
3 | Cl.O[C@H](c1ccccn1)C1(c2ccc(Cl)c(Cl)c2)CC(F)(F)C1 [Example 111, (S)-[1-(3,4-dichlorophenyl)-3,3-difluorocyclobutyl](pyridin-2-yl)methanol hydrochloride] | – | 0.05 to 0.5 | – | 52 | 23
4 | OC(c1ccccn1)C1(c2ccc(OC(F)(F)F)cc2)CC(F)(F)C1 (stereo not drawn) [Example 112, {3,3-difluoro-1-[4-(trifluoromethoxy)phenyl]cyclobutyl}(pyridin-2-yl)-methanol] | 75 | 0.05 to 0.5 | 75 | – | –
5 | OC(c1ccccn1)C1(c2cccc(C(F)(F)F)c2)CC(F)(F)C1 (stereo not drawn) [Example 113, {3,3-difluoro-1-[3-(trifluoromethyl)phenyl]cyclobutyl}(pyridin-2-yl)-methanol] | 24 | 0.05 to 0.5 | 18 | – | –
6 | OC(c1ccccn1)C1(c2cccc(OC(F)(F)F)c2)CC(F)(F)C1 (stereo not drawn) [Example 114, {3,3-difluoro-1-[3-(trifluoromethoxy)phenyl]cyclobutyl}(pyridin-2-yl)-methanol] | 6.9 | 0.05 to 0.5 | 11 | – | –
7 | OC(c1ccccn1)C1(c2cc(C(F)(F)F)ccn2)CCC1 (stereo not drawn) [Example 116, pyridin-2-yl{1-[4-(trifluoromethyl)pyridin-2-yl]cyclobutyl}methanol] | 37 | 0.501 to 1 | 25 | – | –

The next lines start with results.

Row | HUMAN MICROSOMAL STABILITY (% REMAINING AFTER 30 MINUTES) ([1]; human, 0.5 h, 0.5 μM, pH 7.4) [%] | IC50 [2] [µM] | RAT MICROSOMAL STABILITY (% REMAINING AFTER 30 MINUTES) [3, 4] [%] | SMILES | HUMAN MICROSOMAL STABILITY (% REMAINING AFTER 30 MINUTES) [1, 5] [%] | RAT MICROSOMAL STABILITY (% REMAINING AFTER 30 MINUTES) [3, 5] [%]
8 | 13 | 0.501 to 1 | 4.9 | OC(c1ccccn1)C1(c2ccc(F)c(F)c2)CCCO1 (stereo not drawn) [Example 108, (anti)-[2-(3,4-difluorophenyl)tetrahydrofuran-2-yl](pyridin-2-yl)methanol] | – | –
9 | >85 | 5.1 to 20 | 81 | OC(c1ccccn1)C1(c2ccc(C(F)(F)F)cn2)CCC1 (stereo not drawn) [Example 115, pyridin-2-yl{1-[5-(trifluoromethyl)pyridin-2-yl]cyclobutyl}methanol] | – | –
10 | 18 | 1.1 to 5 | 50 | O=C1CC(c2ccc(Cl)c(Cl)c2)([C@H](O)c2ccccn2)C1 [Example 117, 3-(3,4-dichlorophenyl)-3-[(S)-hydroxy(pyridin-2-yl)methyl]cyclobutanone] | – | –
11 | 21 | 0.05 to 0.5 | 11 | O[C@H](c1ccccn1)C1(c2cc(C(F)(F)F)ccn2)CCC1 [Example 123, (S)-pyridin-2-yl{1-[4-(trifluoromethyl)pyridin-2-yl]cyclobutyl}methanol] | – | –
